For test [1], the system named is human breast-cancer cells, MCF-7. The experiment in a line: In vitro survival assay (MTT), breast cancer cells MCF-7. Format: cell-based. The conditions noted are these: MCF7, 48 hours incubation. On the procedure:
(§1) The NCI anti-cancer drug screen model was adopted to test the anti-cancer effect of the compound from example 1 in the invention. The isolated compound of 4-hydroxy-2,3-dimethoxy-6-methyl-5(3,7,11-trimethyl-dodeca-2,6,10-trienyl)-cyclohex-2-enone from example 1 was added into the culture media of human breast-cancer cells, MCF-7 or MDA-MB-231, for tumor cell survival assay. This assay can be tested with 3-[4,5-dimethylthiazol-2-yl]2,5-diphenyltetrazolium bromide (MTT) assay, which is commonly used to determine cell proliferation, percent of viable cells, and cytotoxicity. MTT is a yellow dye, which can be absorbed by the living cells and be reduced to purplish blue formazan crystals by succinate tetrazolium reductase in mitochondria. Formazan formation can therefore be used to assess and determine the survival rate of cells.
(§2) The human breast-cancer cells, MCF-7 and MDA-MB-231 were separately cultivated in media containing fetal calf serum for 24 hours. The proliferated cells were washed once with PBS, then treated with 1× trypsin-EDTA and centrifuged at 1200 rpm for 5 minutes. The supernatant was discarded and the cell pellet was resuspended in 10 ml of fresh culture medium by gently shaking. The cells were placed in a 96-well plate. […] The plates were read on an ELISA reader at wavelength of 570 nm to determine the survival rates.

Test [2] relates to human prostate cancer cells, LNCaP. The experiment in a line: In vitro survival assay (MTT), prostate cancer cells LNCaP. The settings on record: 48 hours incubation. In kind it is cell-based. On the procedure:
The NCI anti-cancer drug screen model was also adopted to test the anti-cancer effect of the compound isolated from example 1 in the present invention. The isolated compound of 4-hydroxy-2,3-dimethoxy-6-methyl-5(3,7,11-trimethyl-dodeca-2,6,10-trienyl)-cyclohex-2-enone from example 1 was added into the culture media of human prostate cancer cells, LNCaP or DU-145, for tumor cell survival assay.
as §2, with “[…]” for “breast-cancer”, “LNCaP” for “MCF-7”, “DU-145,” for “MDA-MB-231”, “plate. Ethanol extracts of Antrodia camphorata (the control group, total extracts of Antrodia camphorata without purification) or 4-hydroxy-2,3-dimethoxy-6-methyl-5(3,7,11-trimethyl-dodeca-2,6,10-trienyl)-cyclohex-2-enone (the experiment group) were added into each of the 96 wells at the following concentrations: 30, 10, 3, 1, 0.3, 0.1 and 0.03 μg/ml, respectively. The cells were incubated at 37° C. in a 5% CO2 incubator for 48 hours.” for “plate.”

In test [3] the test system is human breast-cancer cells, MDA-MB-231. The experiment in a line: In vitro survival assay (MTT), breast cancer cells MDA-MB-231. The settings on record: 48 hours incubation. In kind it is cell-based. On the procedure:
as §1, §2

Test [4] relates to human breast-cancer cells, MCF-7. The experiment in a line: In vitro Taxol add-on study (MTT), MCF-7. Format: cell-based. The settings on record: Homo sapiens, MCF7, 0.0017 μg/ml Taxol + formula 2. Here is the method:
The experiment was also carried out according to NCI anti-cancer drug screen in vitro model. The human breast-cancer cells, MCF-7 and MDA-MB-231 were separately cultivated in media containing fetal calf serum for 24 hours. The proliferated cells were washed once with PBS, then treated with 1× trypsin-EDTA and centrifuged at 1200 rpm for 5 minutes. The supernatant was discarded and the cell pellet was resuspended in 10 ml of fresh culture medium by gently shaking. The cells were placed in a 96-well plate after 0.0017 μg/ml Taxol was added and treated for 72 hours. 4-hydroxy-2,3-dimethoxy-6-methyl-5(3,7,11-trimethyl-dodeca-2,6,10-trienyl)-cyclohex-2-enone obtained from example 1 were added respectively into each of the 96 wells at the following concentrations: 0 μg/ml (the control group); 30, 10, 3, 1, 0.3, 0.1 and 0.03 μg/ml (the experiment group). The cells were incubated at 37° C. in a 5% CO2 incubator for 48 hours. MTT was added in a concentration of 2.5 mg/ml into each well in dark and reacted for 4 hours, followed by the addition of 100 μl of lysis buffer to terminate the reaction. The plates were read on an ELISA reader at wavelength of 570 nm to determine the survival rates.

Test [5] concerns Human low density lipoprotein (LDL). The experiment in a line: In vitro antioxidant activity study (Cu2+-induced LDL oxidation, diene formation). In kind it is biochemical. The settings on record: 40 μg/mL formula 2; for Capacity values: capacity value 1 = 2 μM Trolox, antioxidant ability when larger than 0.5. Here is the method: Human low density lipoprotein (LDL) oxidated with copper ion (Cu^2+) has been widely employed to assess antioxidant activities of samples to be assayed. Antioxidant activity of a sample is determined by the diene contents of LDL after oxidation and expressed in Trolox equivalents by using a standard curve calculated from the water-soluble vitamin E analogue Trolox standards (the antioxidant capacity value of 1 is expressed in terms of 2 μM of Trolox).
The following solutions were prepared firstly: double distilled water (the negative control group), 5 mM sodium phosphate buffer (SPB), 1 μM and 2 μM Trolox solution (the positive control group), and 40 μg/ml 4-hydroxy-2,3-dimethoxy-6-methyl-5(3,7,11-trimethyl-dodeca-2,6,10-trienyl)-cyclohex-2-enone isolated from example 1. The concentration of LDL cholesterol (LDL-C) was determined using enzyme reaction method, which was diluted to 0.1-0.25 mg/ml with 5 mM SPB. One hundred μl of the LDL was added into each well of a 96-well quartz plate, followed by addition of the abovementioned Trolox and the isolated compound from example 1. Standardized oxidizing agent CuSO4 was supplemented to induce oxidation at a final concentration of 5 μM in each 250 μl well. The plate was read on an ELISA reader at wavelength of 232 nm at 37 °C for 12 hours. The sampling time was 15 min.

For `COC1=C(OC)C(O)C(C/C=C(\C)CC/C=C(\C)CCC=C(C)C)C(C)C1=O` (centres unmarked) [formula 2, 4-hydroxy-2,3-dimethoxy-6-methyl-5(3,7,11-trimethyl-dodeca-2,6,10-trienyl)-cyclohex-2-enone], the IC50 – broadly, the concentration needed to halve the response being measured – in test [1] was determined as 0.852 µg/mL; in test [2], 2.38 µg/mL; in test [3] it was 1.03 µg/mL; in test [4] it was 0.009 µg/mL. Further, the “Tlag” value in test [5] (LDL oxidised with 5 μM CuSO4) is 439 min. Further, the Capacity values in test [5] stood at 1.30; in test [5] (listed as 4-hydroxy-2,3-dimethoxy-6-methyl-5(3,7,11-trimethyl-dodeca-2,6,10-trienyl)-cyclo), 1.3. Further, the “ΔTlag” value in test [5] (difference between Tlag and Tlag0 (H2O)) is 208 min.

Values taken from patent US7342137B1, “Cyclohexenone compounds from Antrodia camphorata and application thereof” (Golden Biotechnology Corporation, priority 2007, dated 2008).
